Consider nine compounds from patent US20240360165A1, “INHIBITORS OF CYCLIN DEPENDENT KINASE 7 (CDK7)” (Syros Pharmaceuticals, Inc., priority 2016, published 2024).

Assay [1] concerns A673 cells. Put plainly: Inhibition of proliferation of A673 cells (CyQUANT, 72 hour). In kind it is cell-based, human. The following applies: A673 cells, 72 hour, CyQUANT, read-out: Inhibition of Proliferation of A673 Cells (calculated IC50). Summed up: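 Proliferation read-out by CyQUANT after a 72 h exposure, compounds spanning 4 μM–[…] in half-log steps. A673 cells cultured at 37° C under 5% CO2 in DMEM supplemented with 10% FBS plus 1 mM sodium pyruvate.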

Assay [2] deals with CDK7/Cyclin H/MAT1 complex (Homo sapiens, UniProt P50613). The assay can be described thus: CDK7 inhibition assay (Caliper/LabChip EZ Reader kinase assay). In kind it is biochemical. As to conditions: Table 1, CDK7/Cyclin H/MAT1 6 nM, ATP 2 mM, 35 min at 27° C. The essentials: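 A Perkin Elmer Caliper/LabChip EZ Reader (Waltham, MA) platform served as the basis for this CDK7 kinase inhibition assay. The work was carried out by Biortus Biosciences, located in Jiangyin, Jiangsu Province, P.R. of China. Each CDK studied had its own kinase assay, and compounds were evaluated for their ability to block CDK7 activity.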
Sequence of CDK7/Cyclin H/MAT1 complex (P50613 whole entry, species assumed): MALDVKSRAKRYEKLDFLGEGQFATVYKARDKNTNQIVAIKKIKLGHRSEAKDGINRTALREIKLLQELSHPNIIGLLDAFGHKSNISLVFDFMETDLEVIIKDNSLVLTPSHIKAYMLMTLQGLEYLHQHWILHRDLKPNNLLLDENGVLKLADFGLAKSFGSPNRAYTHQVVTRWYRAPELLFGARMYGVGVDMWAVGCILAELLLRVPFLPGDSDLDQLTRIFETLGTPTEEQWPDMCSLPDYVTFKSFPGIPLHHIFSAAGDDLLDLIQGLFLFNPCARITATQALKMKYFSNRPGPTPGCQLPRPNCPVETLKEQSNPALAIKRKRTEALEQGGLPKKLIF
Sequence of CDK7/Cyclin H/MAT1 complex (P51946 whole entry partner, species assumed): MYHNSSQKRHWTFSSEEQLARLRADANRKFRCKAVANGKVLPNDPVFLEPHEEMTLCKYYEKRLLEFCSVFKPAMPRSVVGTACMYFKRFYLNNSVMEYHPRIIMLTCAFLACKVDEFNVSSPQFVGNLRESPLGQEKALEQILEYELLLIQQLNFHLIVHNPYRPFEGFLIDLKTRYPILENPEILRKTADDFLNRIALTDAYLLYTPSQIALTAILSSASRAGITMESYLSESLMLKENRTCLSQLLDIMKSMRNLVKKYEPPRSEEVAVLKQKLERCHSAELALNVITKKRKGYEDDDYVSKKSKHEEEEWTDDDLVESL
Sequence of CDK7/Cyclin H/MAT1 complex (P51948 whole entry partner, species assumed): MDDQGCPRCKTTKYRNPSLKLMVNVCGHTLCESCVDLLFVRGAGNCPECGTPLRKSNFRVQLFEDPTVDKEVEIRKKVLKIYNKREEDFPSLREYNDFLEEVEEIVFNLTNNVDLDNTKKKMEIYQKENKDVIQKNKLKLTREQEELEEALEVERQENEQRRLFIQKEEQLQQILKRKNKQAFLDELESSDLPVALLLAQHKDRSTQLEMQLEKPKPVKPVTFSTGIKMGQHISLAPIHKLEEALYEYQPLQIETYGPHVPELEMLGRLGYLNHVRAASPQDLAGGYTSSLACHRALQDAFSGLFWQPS

Assay [3] concerns the target CDK2/Cyclin E1 complex (Homo sapiens, UniProt P24941). The assay can be described thus: CDK2 inhibition assay (Caliper/LabChip EZ Reader kinase assay). In kind it is biochemical. The following applies: Table 1, CDK2/Cyclin E1 0.5 nM, ATP 2 mM, 35 min at 27° C. The essentials:
(§1)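 Activity read as fluorescent peptide conversion on a LabChip EZ Reader. For CDK2/Cyclin E1 (0.5 nM), substrate was 5-FAM-CDK7tide (2 μM) with 2 mM MgCl2; for CDK9/Cyclin T1 (8 nM), 5-FAM-CDK9tide (2 μM) with 10 mM MgCl2.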

For assay [4], the target named is CDK9/Cyclin T1 complex (Homo sapiens, UniProt P50750). The assay can be described thus: CDK9 inhibition assay (Caliper/LabChip EZ Reader kinase assay). It counts as biochemical. As to conditions: Table 1, CDK9/Cyclin T1 8 nM, ATP 2 mM, 15 min at 27° C. The essentials: as §1
Sequence of CDK9/Cyclin T1 complex (P50750 whole entry, species assumed, the tested form may be a part): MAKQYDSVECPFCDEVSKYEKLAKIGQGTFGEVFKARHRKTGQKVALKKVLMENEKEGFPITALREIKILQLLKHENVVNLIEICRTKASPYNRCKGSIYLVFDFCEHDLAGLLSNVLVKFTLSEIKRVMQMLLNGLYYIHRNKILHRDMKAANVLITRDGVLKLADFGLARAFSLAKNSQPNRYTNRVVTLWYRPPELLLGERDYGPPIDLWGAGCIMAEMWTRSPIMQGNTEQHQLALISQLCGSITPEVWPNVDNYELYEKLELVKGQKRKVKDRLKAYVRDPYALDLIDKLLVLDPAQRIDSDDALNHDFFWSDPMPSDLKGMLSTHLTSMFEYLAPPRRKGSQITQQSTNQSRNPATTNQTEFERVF
Sequence of CDK9/Cyclin T1 complex (O60563 whole entry partner, species assumed, the tested form may be a part): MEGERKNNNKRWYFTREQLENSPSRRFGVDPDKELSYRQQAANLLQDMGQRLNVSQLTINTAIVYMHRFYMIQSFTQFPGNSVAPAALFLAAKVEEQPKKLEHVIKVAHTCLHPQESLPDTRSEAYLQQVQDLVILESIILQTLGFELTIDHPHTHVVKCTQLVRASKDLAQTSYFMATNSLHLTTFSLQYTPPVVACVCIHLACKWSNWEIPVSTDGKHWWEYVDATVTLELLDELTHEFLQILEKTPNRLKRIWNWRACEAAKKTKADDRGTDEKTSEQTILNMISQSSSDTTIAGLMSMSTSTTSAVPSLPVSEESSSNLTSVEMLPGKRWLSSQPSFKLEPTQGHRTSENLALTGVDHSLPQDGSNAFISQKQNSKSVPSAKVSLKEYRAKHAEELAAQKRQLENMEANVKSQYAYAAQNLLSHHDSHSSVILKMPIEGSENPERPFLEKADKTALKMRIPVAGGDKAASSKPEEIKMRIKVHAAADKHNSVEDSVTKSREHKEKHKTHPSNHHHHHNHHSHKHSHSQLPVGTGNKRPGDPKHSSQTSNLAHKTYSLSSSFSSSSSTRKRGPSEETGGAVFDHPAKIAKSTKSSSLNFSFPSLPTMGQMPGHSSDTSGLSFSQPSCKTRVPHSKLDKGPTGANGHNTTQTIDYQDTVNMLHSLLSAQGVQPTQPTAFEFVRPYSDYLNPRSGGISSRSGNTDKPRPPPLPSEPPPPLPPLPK
The target in assay [5] is T1, CDK12 (aa686-1082)/Cyclin K complex (Homo sapiens, UniProt Q9NYV4).
T1 construct: CDK12 (aa686-1082)/Cyclin K complex
T1 sequence (Q9NYV4 686-1082, species assumed): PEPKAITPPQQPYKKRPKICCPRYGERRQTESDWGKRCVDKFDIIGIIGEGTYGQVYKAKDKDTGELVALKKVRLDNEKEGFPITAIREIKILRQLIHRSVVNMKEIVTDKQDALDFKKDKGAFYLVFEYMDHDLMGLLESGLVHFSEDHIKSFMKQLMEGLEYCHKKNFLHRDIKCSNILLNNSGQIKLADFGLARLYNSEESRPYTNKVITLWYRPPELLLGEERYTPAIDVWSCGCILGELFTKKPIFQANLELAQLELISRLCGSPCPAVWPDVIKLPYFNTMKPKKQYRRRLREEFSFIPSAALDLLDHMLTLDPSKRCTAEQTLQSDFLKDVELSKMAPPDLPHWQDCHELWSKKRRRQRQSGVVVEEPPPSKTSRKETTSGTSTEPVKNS
T1 sequence (O75909 whole entry partner, species assumed, the tested form may be a part): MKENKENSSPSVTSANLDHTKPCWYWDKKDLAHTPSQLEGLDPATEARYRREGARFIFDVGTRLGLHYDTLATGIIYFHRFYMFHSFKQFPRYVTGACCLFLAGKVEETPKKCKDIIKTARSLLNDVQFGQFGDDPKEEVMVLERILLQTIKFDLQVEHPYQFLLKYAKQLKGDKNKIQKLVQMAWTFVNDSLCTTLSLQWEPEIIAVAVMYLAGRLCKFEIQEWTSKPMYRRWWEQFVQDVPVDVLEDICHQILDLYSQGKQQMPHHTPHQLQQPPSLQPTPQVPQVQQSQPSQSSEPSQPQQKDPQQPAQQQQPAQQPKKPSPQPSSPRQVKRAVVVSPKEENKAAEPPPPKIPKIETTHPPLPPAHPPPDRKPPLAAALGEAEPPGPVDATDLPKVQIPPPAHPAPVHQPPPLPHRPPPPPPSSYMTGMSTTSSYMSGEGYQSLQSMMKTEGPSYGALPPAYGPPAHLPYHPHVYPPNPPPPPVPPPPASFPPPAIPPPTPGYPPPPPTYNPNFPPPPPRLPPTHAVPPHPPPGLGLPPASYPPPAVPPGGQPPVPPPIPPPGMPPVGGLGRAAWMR
The assay can be described thus: CDK12 inhibition assay (Caliper/LabChip EZ Reader kinase assay). The following applies: Table 1, CDK12 (aa686-1082)/Cyclin K 50 nM, ATP 2 mM, 3 hr at 27° C. In kind it is biochemical.

Assay [6] concerns HCC70 cells. Put plainly: Inhibition of proliferation of HCC70 cells (CyQUANT Direct Cell Proliferation Assay, 72 hour). In kind it is cell-based, human. Summed up: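 Human triple-negative breast cancer HCC70 cells cultured at 37° C, 5% CO2, with compound for 72 hour. Anti-proliferative effect read by CyQUANT Direct Cell Proliferation Assay. Dinaciclib, a CDK inhibitor analog and triptolide served as positive controls.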

Setting [7] is: Homo sapiens, HCC70, 72 h, read-out: Inhibition of Proliferation of HCC70 Cells (calculated IC50).

Like-named read-outs stand apart in the source and are kept apart here.

For the compound `FC(F)n1cc(-c2ccc3c(-c4nc(N[C@H]5CCCNC5)ncc4C(F)(F)F)c[nH]c3c2)cn1` [Compound 290, 4-[6-[1-(difluoromethyl)pyrazol-4-yl]-1H-indol-3-yl]-N-[(3S)-3-piperidyl]-5-(trifluoromethyl) pyrimidin-2-amine], the IC50 is 20 to 200 nM in assay [1] (Homo sapiens, A673, 72 h); 20 to 200 nM in assay [2]; 200 to 5000 nM in assay [3]; 200 to 5000 nM in assay [4]; 200 to 5000 nM in assay [5]; 100 to 1000 nM in assay [6] (setting [7]).

`FC(F)(F)c1cnc(N[C@H]2CCCNC2)nc1-c1c[nH]c2cc(-c3ccn[nH]3)ccc12` [Compound 291, N-[(3S)-3-piperidyl]-4-[6-(1H-pyrazol-3-yl)-1H-indol-3-yl]-5-(trifluoromethyl) pyrimidin-2-amine]: the IC50 is 20 to 200 nM in assay [1] (Homo sapiens, A673, 72 h); less than 20 nM in assay [2]; 200 to 5000 nM in assay [3]; 200 to 5000 nM in assay [4]; 200 to 5000 nM in assay [5]; 100 to 1000 nM in assay [6] (setting [7]).

As to `N#C[C@@H]1CCN(C(=O)c2ccc3c(-c4nc(N[C@H]5CCCNC5)ncc4C(F)(F)F)c[nH]c3c2)C1` [Compound 292, (3R)-1-[3-[2-[[(3S)-3-piperidyl]amino]-5-(trifluoromethyl)pyrimidin-4-yl]-1H-indole-6-carbonyl] pyrrolidine-3-carbonitrile], the IC50 in assay [1] (listed as 107) is less than 20 nM; in assay [1] (Homo sapiens, A673, 72 h), 20 to 200 nM; in assay [2], less than 20 nM; in assay [2] (listed as 107), 20 to 200 nM; in assay [3], 200 to 5000 nM; in assay [3] (listed as 107), 200 to 5000 nM. The IC50 was 200 to 5000 nM in assay [4]; 200 to 5000 nM in assay [4] (listed as 107); 200 to 5000 nM in assay [5]; 20 to 200 nM in assay [5] (listed as 107); 100 to 1000 nM in assay [6] (setting [7]).

For the compound `N#C[C@H]1CCN(C(=O)c2ccc3c(-c4nc(N[C@H]5CCCNC5)ncc4C(F)(F)F)c[nH]c3c2)C1` [Compound 293, (3S)-1-[3-[2-[[(3S)-3-piperidyl]amino]-5-(trifluoromethyl)pyrimidin-4-yl]-1H-indole-6-carbonyl] pyrrolidine-3-carbonitrile], the IC50 in assay [1] was 200 to 5000 nM; in assay [2], less than 20 nM; in assay [2] (listed as 108), 20 to 200 nM; in assay [3], 200 to 5000 nM; in assay [3] (listed as 108), 200 to 5000 nM; in assay [4], 200 to 5000 nM. Further, the IC50 in assay [4] (listed as 108) was 200 to 5000 nM; in assay [5], 200 to 5000 nM; in assay [5] (listed as 108), 200 to 5000 nM; in assay [6] (setting [7]), 100 to 1000 nM.

With `CS(=O)(=O)c1c(C#N)ccc2c(-c3nc(N[C@H]4CCCNC4)ncc3Cl)c[nH]c12` [Compound 294, 3-[5-chloro-2-[[(3S)-3-piperidyl]amino]pyrimidin-4-yl]-7-methylsulfonyl-1H-indole-6-carbonitrile], the IC50 in assay [1] was 20 to 200 nM; in assay [2] it was less than 20 nM; in assay [2] (listed as 109), less than 20 nM; in assay [3] it was 200 to 5000 nM; in assay [3] (listed as 109), 200 to 5000 nM; in assay [4], 200 to 5000 nM. Further, the IC50 is 200 to 5000 nM in assay [4] (listed as 109); 200 to 5000 nM in assay [5]; 20 to 200 nM in assay [5] (listed as 109); less than 100 nM in assay [6] (setting [7]); 100 to 1000 nM in assay [6] (listed as 109, read-out: Inhibition of Proliferation of HCC70 Cells (calculated IC50)).

Take `Cn1ccc(-c2ccc3c(-c4nc(N[C@H]5CCCNC5)ncc4C(F)(F)F)c[nH]c3c2)n1` [Compound 303, 4-[6-(1-methylpyrazol-3-yl)-1H-indol-3-yl]-N-[(3S)-3-piperidyl]-5-(trifluoromethyl) pyrimidin-2-amine]: the IC50 in assay [1] is 200 to 5000 nM; in assay [2] it was less than 20 nM; in assay [2] (listed as 113), 20 to 200 nM; in assay [3], 200 to 5000 nM; in assay [3] (listed as 113), more than 5000 nM; in assay [4] it was 200 to 5000 nM. The IC50 in assay [4] (listed as 113) was more than 5000 nM; in assay [5] it was 200 to 5000 nM; in assay [5] (listed as 113), 200 to 5000 nM; in assay [6] (setting [7]) it was 100 to 1000 nM.

Consider `O=C(O)c1ccc2c(-c3nc(N[C@H]4CCCNC4)ncc3C(F)(F)F)c[nH]c2c1` [Compound 306, 3-[2-[[(3S)-3-piperidyl]amino]-5-(trifluoromethyl)pyrimidin-4-yl]-1H-indole-6-Carboxylic acid], for which the IC50 in assay [1] is 20 to 200 nM; in assay [2], 20 to 200 nM; in assay [2] (listed as 114), 20 to 200 nM; in assay [3], 200 to 5000 nM; in assay [3] (listed as 114), 200 to 5000 nM; in assay [4] it was more than 5000 nM. Further, the IC50 in assay [4] (listed as 114) is 200 to 5000 nM; in assay [5], 200 to 5000 nM; in assay [5] (listed as 114), 200 to 5000 nM; in assay [6] (setting [7]), 100 to 1000 nM.

Turning to `O=c1[nH]cc(-c2ccc3c(-c4nc(N[C@H]5CCCNC5)ncc4C(F)(F)F)c[nH]c3c2)c(=O)[nH]1` [Compound 333, 5-[3-[2-[[(3S)-3-piperidyl]amino]-5-(trifluoromethyl)pyrimidin-4-yl]-1H-indol-6-yl]-1H-pyrimidine-2,4-dione], the IC50 in assay [1] is 200 to 5000 nM; in assay [2], less than 20 nM; in assay [2] (listed as 139), 20 to 200 nM; in assay [3], more than 5000 nM; in assay [3] (listed as 139), more than 5000 nM; in assay [4], more than 5000 nM. Also, the IC50 in assay [4] (listed as 139) is more than 5000 nM; in assay [5] it was 200 to 5000 nM; in assay [5] (listed as 139), more than 5000 nM; in assay [6] (setting [7]), 1000 to 5000 nM.

On to `O=C(c1cccc(-c2ccc3c(-c4nc(N[C@H]5CCCNC5)ncc4C(F)(F)F)c[nH]c3c2)c1)N1CCCC1` [Compound 340, [3-[3-[2-[[(3S)-3-piperidyl]amino]-5-(trifluoromethyl)pyrimidin-4-yl]-1H-indol-6-yl]phenyl]-pyrrolidin-1-yl-methanone], for which the IC50 in assay [1] is 200 to 5000 nM; in assay [2], 20 to 200 nM; in assay [3] it was 200 to 5000 nM; in assay [3] (listed as 140), more than 5000 nM; in assay [4] it was 200 to 5000 nM; in assay [4] (listed as 140), more than 5000 nM. Further, the IC50 was 200 to 5000 nM in assay [5], more than 5000 nM in assay [5] (listed as 140) and 1000 to 5000 nM in assay [6] (setting [7]).
